Legend:
[1] = molecular target: T1, PYCR1 full length recombinant enzyme (aa 1-319) (Homo sapiens, UniProt P32322); assay: PYCR1 Inhibition Assay (NAD(P)H-Glo luminescence); format: biochemical; conditions: 5 mM L-proline + 0.5 mM NAD+, 4.2 nM enzyme, 45 min at room temperature
T1 construct: PYCR1 full length recombinant enzyme (aa 1-319) with a 6His-tag at the N-terminus; 6His (N); made in house; host or cells: E. coli
T1 sequence (P32322 1-319): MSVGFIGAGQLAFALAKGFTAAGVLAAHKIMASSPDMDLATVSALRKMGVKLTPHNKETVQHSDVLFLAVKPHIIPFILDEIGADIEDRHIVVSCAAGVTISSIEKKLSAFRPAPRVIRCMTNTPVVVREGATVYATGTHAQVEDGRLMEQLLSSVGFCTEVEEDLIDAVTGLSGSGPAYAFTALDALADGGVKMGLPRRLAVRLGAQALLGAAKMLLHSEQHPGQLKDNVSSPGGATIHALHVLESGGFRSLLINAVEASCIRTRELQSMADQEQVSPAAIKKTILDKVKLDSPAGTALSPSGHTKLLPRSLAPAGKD
Source text: An example for such assay may look as follows:
The assay is based on the ability of PYCR1 to catalyze the oxidation of L-proline to L-1 pyrroline-5-carboxylate which occurs concomitant with the reduction of the cosubstrate NAD^+ to its reduced form NADH+H^+. The amount of NADH+H^+ was quantified using the NAD(P)H-Glo™ kit from Promega (catalogue number G9062). Components of the kit generate a luciferase-based luminescence signal the intensity of which is linearly proportional to the amount of NADH+H^+ generated by the PYCR1 reaction and consequently the PYCR1 activity. The luminescence intensity was taken as the measure for the amount of NADH+H^+ generated by PYCR1. […] 40 nl Test compound (dissolved and serially diluted in DMSO at final concentrations during the enzymatic reaction ranging from 6.9E-09 M to 4.5E-05 M) is added to the well of a white 1536-well microtiter plate using an acoustic dispenser (Echo Liquid Handler from Labcyte Inc.) • 2. […] Preincubation of enzyme and test compound for approximately 15 min at room temperature • 4. Add 2.0 μl Substrate mix in assay buffer (5 mM L-proline+0.5 mM NAD^+ final concentration during the enzymatic reaction) • 5. 45 min PYCR1 reaction at room temperature (linear range of the enzymatic reaction) • 6. Add 1.0 μl Stopping agent in assay buffer (2 mM ZnCl2 final concentration) • 7. Incubate for 15 min at room temperature • 8. Add 2.0 μl NAD(P)H-Glo™ reagent (Promega) • 9. Incubate for 30-150 min at room temperature for generation of the persistent luminescence signal • 10. Measure luminescence intensity in a ViewLux Imager (PerkinElmer)

rat MH3924A cells [2] = system: rat MH3924A cells
Description: Morris hepatoma cells (MH3924A) were cultured in Dulbecco's modified eagle medium (DMEM) media supplemented with 10% fetal bovine serum (FBS), 100 IU/ml penicillin, 100 μg/ml streptomycin. To assess cell proliferation, cells were seeded in T25 flasks and incubated in DMEM complete medium for 24 hours to allow attachment. Subsequently, seeding cells were infected with shRNA lentivirus in the presence of 8μg/ ml of polybrene for about 7 hours, cells were grown for varying lengths of time, at the end of which they were detached by trypsinization and counted with Countess (Life Technologies, Carlsbad, USA).

rat MH3924A cells [3] = assay: Orthotopic MH3924A xenograft models, doxycycline-inducible shRNA; format: in vivo, scid mice; conditions: preventive setting, knockdown induced by doxycycline one day after orthotopic implantation
Source text: The HCC model was created by the direct intrahepatic injection of rat MH3924A cells harboring inducible shRNA Pycr1.2 or scrambled shRNA constructs into scid mice (InVivos, Singapore). The mice were anesthetized and a midline incision was made to expose the liver. The cells were then slowly injected under the hepatic capsule into the upper left lobe of the liver using a 27-G needle. A pale, whitish color could be observed at the point of injection under the hepatic capsule. Gentle compression was applied with a cotton applicator to stop bleeding and reflux of the cells. The abdomen was closed with a 4-0 silk suture.
In the preventive setting (FIG. 7), shRNA expression was induced the day after cell injection by adding 1 μg/ml doxycycline to the drinking water. Two weeks later, animals were sacrificed and tumors excised for analysis (n=5).
In the therapeutic setting, mice were subjected to liver MRI (magnetic resonance imaging) 7 days (1st experiment, FIG. 8) or 10 days (2nd experiment, FIG. 9) after cell injection and shRNA expression was induced one or four days later by adding 1 μg/ml doxycycline to the drinking water. On day 19 (1st experiment) or 21 (2nd experiment), animals were subjected to liver MRI and sacrificed. Tumors were lysed and analyzed for PYCR1 by Western blot.

rat MH3924A cells [4] = assay: Subcutaneous MH3924A xenograft model; format: in vivo; conditions: scid mice
Source text: Female scid mice (InVivos, Singapore) were subcutaneously inoculated with 1×10^6rat MH3924A cells that were stably transfected with either shRNA Pycr1.2 or scrambled control shRNA. Mice were sacrificed and tumors excised 3 weeks later.

Compound: COc1ccc(C(=O)c2oc3ccccc3c2CSCCC(=O)OC(C)(C)C)cc1C(=O)O [5-[(3-{[(3-tert-butoxy-3-oxopropyl)thio]methyl}-1-benzofuran-2-yl)carbonyl]-2-methoxybenzoic acid]
- IC50 [1]: 8.5 µM

Compound: O=C(CCCc1nc(-c2ccc(Cl)cc2)no1)Nc1ccccc1C(=O)O [2-({4-[3-(4-chlorophenyl)-1,2,4-oxadiazol-5-yl]butanoyl}amino)benzoic acid]
- IC50 [1]: 8 µM

Compound: O=C(Cc1ccc(C(=O)O)cc1)NC(c1ccccc1)c1ccccc1N1CCCCC1 (centres unmarked) [4-(2-oxo-2-{[phenyl(2-piperidin-1-ylphenyl)methyl]amino}ethyl)benzoic acid]
- IC50 [1]: 7.3 µM

Compound: shRNA Pycr1.2: Rat PYCR1.2 shRNA: GAACCTGACACCCCACAACAA, short hairpin oligonucleotide targeting rat Pycr1 in lentiviral vector pLKO or pLKO-Tet
- cell growth (rat MH3924A cells [2]; doxycycline-inducible PYCR1 knockdown MH3924A cell line, with vs without doxycycline): reduced cell growth
- cell proliferation (rat MH3924A cells [2]; rat MH3924A cells, shRNA knockdown vs scrambled shRNA): reduced proliferation
- tumor growth (rat MH3924A cells [3]): significantly reduced tumor growth
- tumor weight (rat MH3924A cells [4]; MH3924A cells stably expressing shRNA, 3 weeks, n=5): significantly reduced
- tumor growth in vivo (rat MH3924A cells [4]; tumors excised 3 weeks later): significantly inhibited tumor growth

Reference: US20190031773A1, “INHIBITORS AND ANTAGONISTS OF HUMAN PYCR1” (AGENCY FOR SCIENCE, TECHNOLOGY AND RESEARCH, priority 2017, published 2019)
